Reference: US8193191B2, “Urotensin II receptor antagonists” (Janssen Pharmaceutica N.V., priority 2006, dated 2012)
Read-outs that look alike come from different tables or passages of the source.

Columns and labels:
[1] = biological target: T1, rat GPR14 (U-II receptor) (Rattus norvegicus, UniProt P49684); test: Rat UII Calcium Mobilization FLIPR Assay; type: cell-based; settings: average value for the compound tested; read-out: Rat UII FLIPR Average IC50
T1 construct: expressed in transfected cells
T1 sequence (P49684 1-386): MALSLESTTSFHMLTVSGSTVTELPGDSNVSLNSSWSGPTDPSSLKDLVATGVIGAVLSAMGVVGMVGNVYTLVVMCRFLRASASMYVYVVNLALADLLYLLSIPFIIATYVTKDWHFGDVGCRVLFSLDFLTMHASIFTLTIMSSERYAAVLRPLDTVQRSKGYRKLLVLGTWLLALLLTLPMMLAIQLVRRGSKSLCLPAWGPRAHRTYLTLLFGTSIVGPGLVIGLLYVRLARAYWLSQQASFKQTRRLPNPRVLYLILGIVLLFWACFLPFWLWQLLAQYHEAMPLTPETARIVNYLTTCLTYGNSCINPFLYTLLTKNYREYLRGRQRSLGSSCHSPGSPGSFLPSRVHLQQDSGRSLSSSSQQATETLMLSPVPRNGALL
In short: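 Fluorescent calcium signals were recorded at room temperature (23° C) by FLIPR. Stable rat U-II receptor CHO lines had been dye-loaded for 1 h at 37° C in pH 7.4 HBSS containing 20 mM HEPES, 0.1% BSA and 2.5 mM probenecid.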

[2] = biological target: T2, Human UII receptor, 6D9 human rhabdomyosarcoma cells (Homo sapiens, UniProt Q9UKP6); test: Human UII Calcium Mobilization Assay; type: cell-based; settings: average value, FLIPR TETRA, read-out: Human UII Ca^+ Mobilization Average IC50
T2 construct: 6D9: isolated by dilution subcloning of RMS13 cells, ATCC® Number: CRL-2061; host or cells: 6D9 human rhabdomyosarcoma cells (subclone of RMS13)
T2 sequence (Q9UKP6 1-389): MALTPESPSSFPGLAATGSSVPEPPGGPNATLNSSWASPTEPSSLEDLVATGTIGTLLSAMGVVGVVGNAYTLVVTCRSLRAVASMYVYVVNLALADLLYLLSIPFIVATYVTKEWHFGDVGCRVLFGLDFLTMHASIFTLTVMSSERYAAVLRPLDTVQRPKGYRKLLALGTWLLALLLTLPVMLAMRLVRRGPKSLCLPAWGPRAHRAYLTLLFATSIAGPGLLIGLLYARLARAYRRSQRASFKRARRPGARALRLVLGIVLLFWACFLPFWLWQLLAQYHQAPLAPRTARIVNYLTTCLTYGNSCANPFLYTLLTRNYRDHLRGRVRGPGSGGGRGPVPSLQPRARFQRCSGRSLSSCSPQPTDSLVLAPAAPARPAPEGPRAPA
In short: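 FLIPR calcium responses were recorded for 4 minutes after room-temperature addition of test antagonist and U-II, in dye-loaded human 6D9 cells (37° C, 45 min; HBSS/HEPES with probenecid 1.25 mM). Compounds serially diluted in HBSS/HEPES, up to 0.1% DMSO; curves gave IC50 and EC50.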

[3] = biological target: T3, endogenous human UII receptor (Homo sapiens, UniProt Q9UKP6); test: Human Radioligand Binding Assay ((^125I)-U-II binding to human skeletal muscle myoblasts)
T3 sequence (Q9UKP6 1-389): T2 sequence (Q9UKP6 1-389)

Structure (SMILES)	IC50 [1] [nM]	IC50 [2] [nM]	Ki [3] [nM]	Ki ([3]; read-out: Human UII Average Binding Ki, average value, (^125I)-U-II binding to human skeletal muscle myoblasts (HSMM), 25° C., 3 h) [nM]
COc1ccc([C@@H](CCCNC(=O)c2ccc(S(N)(=O)=O)n2C)N2C(=O)c3cccc(N4CCN([C@H](C)c5ccccc5)CC4)c3C2=O)cc1OC [Cpd 148, (R)-1-methyl-5-sulfamoyl-1H-pyrrole-2-carboxylic acid (4-(3,4-dimethoxy-phenyl)-4-{1,3-dioxo-4-[4-(1R)-(1-phenyl-ethyl)-piperazin-1-yl]-1,3-dihydro-isoindol-2-yl}-butyl)-amide]	18	1100	> 200	–
COc1ccc(C(CCCNS(=O)(=O)c2c(C)nn(C)c2Cl)N2C(=O)c3cccc(N4CCN([C@H](C)c5ccccc5)CC4)c3C2=O)cc1OC (stereo partly drawn) [Cpd 101, 5-chloro-1,3-dimethyl-1H-pyrazole-4-sulfonic acid (4-(3,4-dimethoxy-phenyl)-4-{1,3-dioxo-4-[4-(1R)-(1-phenyl-ethyl)-piperazin-1-yl]-1,3-dihydro-isoindol-2-yl}-butyl)-amide]	30	300	120	–
COc1ccc([C@@H](CCCNC(=O)c2ccno2)N2C(=O)c3cccc(N4CCN([C@H](C)c5ccccc5)CC4)c3C2=O)cc1OC [Cpd 187, (R)-isoxazole-5-carboxylic acid (4-(3,4-dimethoxy-phenyl)-4-{1,3-dioxo-4-[4-(1R)-(1-phenyl-ethyl)-piperazin-1-yl]-1,3-dihydro-isoindol-2-yl}-butyl)-amide]	11	910	50	–
COc1ccc([C@@H](CCCNS(=O)(=O)c2cccs2)N2C(=O)c3cccc(OCCN(C)C)c3C2=O)cc1OC [Cpd 229, (R)-thiophene-2-sulfonic acid {4-(3,4-dimethoxy-phenyl)-4-[4-(2-dimethylamino-ethoxy)-1,3-dioxo-1,3-dihydro-isoindol-2-yl]-butyl}-amide]	> 100	1700	320	–
COc1ccc([C@@H](CCCNC(=O)c2conc2C)N2C(=O)c3cccc(N4CCN([C@H](C)c5ccccc5)CC4)c3C2=O)cc1OC [Cpd 158, (R)-3-methyl-isoxazole-4-carboxylic acid (4-(3,4-dimethoxy-phenyl)-4-{1,3-dioxo-4-[4-(1R)-(1-phenyl-ethyl)-piperazin-1-yl]-1,3-dihydro-isoindol-2-yl}-butyl)-amide]	16	330	99	–
COc1ccc([C@@H](CCCNS(=O)(=O)c2cnn(C)c2C)N2C(=O)c3cccc(N4CCN([C@H](C)c5ccccc5)CC4)c3C2=O)cc1OC [Cpd 132, (R)-1,5-dimethyl-1H-pyrazole-4-sulfonic acid (4-(3,4-dimethoxy-phenyl)-4-{1,3-dioxo-4-[4-(1R)-(1-phenyl-ethyl)-piperazin-1-yl]-1,3-dihydro-isoindol-2-yl}-butyl)-amide]	9.8	340	72	–
CCN1CCN(c2cccc3c2C(=O)N(C(CC2CCN(S(=O)(=O)O)CC2)c2ccc(OC)c(OC)c2)C3=O)CC1 (stereo not drawn) [Cpd 233, 4-{2-(3,4-dimethoxy-phenyl)-2-[4-(4-ethyl-piperazin-1-yl)-1,3-dioxo-1,3-dihydro-isoindol-2-yl]-ethyl}-piperidine-1-sulfonic acid]	660	770	57	–
COc1ccc(C(CCCNS(=O)(=O)c2ccccn2)N2C(=O)c3cccc(N4CCN([C@H](C)c5ccccc5)CC4)c3C2=O)cc1OC (stereo partly drawn) [Cpd 107, pyridine-2-sulfonic acid (4-(3,4-dimethoxy-phenyl)-4-{1,3-dioxo-4-[4-(1R)-(1-phenyl-ethyl)-piperazin-1-yl]-1,3-dihydro-isoindol-2-yl}-butyl)-amide]	25	440	10	–
COc1ccc([C@@H](CCCNS(=O)(=O)c2cccs2)N2C(=O)c3cccc(N4CCN(C5CCC5)CC4)c3C2=O)cc1OC [Cpd 192, (R)-thiophene-2-sulfonic acid [4-[4-(4-cyclobutyl-piperazin-1-yl)-1,3-dioxo-1,3-dihydro-isoindol-2-yl]-4-(3,4-dimethoxy-phenyl)-butyl]-amide]	7	640	30	–
CCN1CCN(c2cccc3c2C(=O)N([C@H](CCCNC(=O)C2CCC2)c2ccc(OC)c(OC)c2)C3=O)CC1 [Cpd 202, (R)-cyclobutanecarboxylic acid {4-(3,4-dimethoxy-phenyl)-4-[4-(4-ethyl-piperazin-1-yl)-1,3-dioxo-1,3-dihydro-isoindol-2-yl]-butyl}-amide]	120	960	150	–
CCN1CCN(c2cccc3c2C(=O)N([C@H](CCCOCC(=O)O)c2ccc(OC)c(OC)c2)C3=O)CC1 [Cpd 218, (R)-{4-(3,4-dimethoxy-phenyl)-4-[4-(4-ethyl-piperazin-1-yl)-1,3-dioxo-1,3-dihydro-isoindol-2-yl]-butoxy}-acetic acid]	240	2400	> 300	–
COc1ccc(C(CCCNS(=O)(=O)c2cccnc2)N2C(=O)c3cccc(N4CCN([C@H](C)c5ccccc5)CC4)c3C2=O)cc1OC (stereo partly drawn) [Cpd 106, pyridine-3-sulfonic acid (4-(3,4-dimethoxy-phenyl)-4-{1,3-dioxo-4-[4-(1R)-(1-phenyl-ethyl)-piperazin-1-yl]-1,3-dihydro-isoindol-2-yl}-butyl)-amide]	16	230	80	–
CCOCCC(=O)NCCC[C@H](c1ccc(OC)c(OC)c1)N1C(=O)c2cccc(N3CCN([C@H](C)c4ccccc4)CC3)c2C1=O [Cpd 189, (R)-N-(4-(3,4-dimethoxy-phenyl)-4-{1,3-dioxo-4-[4-(1R)-(1-phenyl-ethyl)-piperazin-1-yl]-1,3-dihydro-isoindol-2-yl}-butyl)-3-ethoxy-propionamide]	8.6	1100	57	–
COc1ccc([C@@H](CCCNS(=O)(=O)c2cnoc2C)N2C(=O)c3cccc(N4CCN([C@H](C)c5ccccc5)CC4)c3C2=O)cc1OC [Cpd 138, (R)-5-methyl-isoxazole-4-sulfonic acid (4-(3,4-dimethoxy-phenyl)-4-{1,3-dioxo-4-[4-(1R)-(1-phenyl-ethyl)-piperazin-1-yl]-1,3-dihydro-isoindol-2-yl}-butyl)-amide]	20	130	–	32
CCN1CCN(c2cccc3c2C(=O)N(C(c2cccc(NS(=O)(=O)O)c2)c2ccc(OC)c(OC)c2)C3=O)CC1 (stereo not drawn) [Cpd 231, (3-{(3,4-dimethoxy-phenyl)-[4-(4-ethyl-piperazin-1-yl)-1,3-dioxo-1,3-dihydro-isoindol-2-yl]-methyl}-phenyl)-sulfamic acid]	680	3400	511	–
COc1ccc([C@@H](CCNS(=O)(=O)Cc2ccccc2)N2C(=O)c3cccc(N4CCN([C@H](C)c5ccccc5)CC4)c3C2=O)cc1OC [Cpd 222, (R)-N-(3-(3,4-dimethoxy-phenyl)-3-{1,3-dioxo-4-[4-(1R)-(1-phenyl-ethyl)-piperazin-1-yl]-1,3-dihydro-isoindol-2-yl}-propyl)-C-phenyl-methanesulfonamide]	25	1500	140	–
CCN1CCN(c2cccc3c2C(=O)N([C@H](CCCOCc2ccccc2)c2ccc(OC)c(OC)c2)C3=O)CC1 [Cpd 201, (R)-2-[4-benzyloxy-1-(3,4-dimethoxy-phenyl)-butyl]-4-(4-ethyl-piperazin-1-yl)-isoindole-1,3-dione]	49	> 3000	210	–
